Measured values taken from ChEMBL document CHEMBL1156829 (Proc Natl Acad Sci U S A, 2008).
pEC50: −log10 of the molar value.

Tests used:
[1] = NOVARTIS: Cytotoxicity against human hepatocellular carcinoma cell line (Huh7); type: toxicity, cell-based, Huh-7; conditions: Huh7 cells (hepatocellular carcinoma cell line)
[2] = test system: Plasmodium falciparum; experiment: NOVARTIS: Inhibition of Plasmodium falciparum 3D7 (drug-susceptible) proliferation in erythrocyte-based infection assay; type: functional, organism-based
[3] = test system: Plasmodium falciparum; experiment: NOVARTIS: Inhibition of Plasmodium falciparum W2 (drug-resistant) proliferation in erythrocyte-based infection assay; type: functional, organism-based; conditions: read-out: EC50

SMILES	CC50 [1] [µM]	pEC50 ([2]; Plasmodium falciparum, 3D7)	pEC50 ([3]; Plasmodium falciparum, W2)	pEC50 [2]	pEC50 [3]
Cc1cc(OC(C)C(=O)N2CCc3ccccc32)ccc1Cl (centres undefined)	> 100	6.05	6.03		
COc1cc(CN2CC3CC(C2)c2cccc(=O)n2C3)ccc1O (centres undefined)	> 100	< 4.90	5.92		
COc1cc(NC(C)=C2C(=O)c3ccccc3C2=O)c(OC)cc1Cl	> 100	5.62	5.98		
CCCN1CCC(NC(c2ccccc2)c2ccc(Cl)cc2)CC1 (centres undefined)	20.2	6.12	7.28		
CCCOc1ncnc2c1sc1nc3c(cc12)COC(C)(C)C3	> 10	< 6.01	< 6.03		
NC(=O)c1ccc2c(c1)N=C(/C=C/c1ccccc1)N(C1CC1)C2	22.9	7.13	5.25		
CC(C)NC(=O)c1ccc2c(c1)N=C(/C=C/c1ccccc1)N(CC1CCCCC1)C2	> 10.2	< 5.90	6.16		
CC(NC(=S)N(Cc1ccco1)Cc1cc2cc3c(cc2[nH]c1=O)OCO3)c1ccccc1 (centres undefined)	> 100	5.86	6.39		
CC(C)CC(=O)OC1C(N2CCCCC2)c2c(ccc(/C=C/C(=O)N3CCCCC3)c2O)OC1(C)C (centres undefined)	> 10	6.04	6.01		
CC1(C)CC(=O)C2=C(C1)NC(=O)CC2c1ccc(C(C)(C)C)cc1 (centres undefined)	> 10	< 5.90	< 5.99		
COc1cc(NC(C)CCCN(Cc2ccc(Cl)cc2)C(=O)c2ccc(Cl)cc2Cl)c2ncccc2c1 (centres undefined)	4.87	6.42	6.33		
CCN(CC)C/C=C/C1(O)c2ccccc2-c2ccccc21	> 10	5.99	6.66		
CC(=C(Cl)Cl)/C(Br)=C(\Br)CO	> 10	6.75	7.23		
CCc1ccc2ncc(C(=O)OCCOC)c(O)c2c1	> 100	6.11	5.79		
Cc1ccc(C(C(=O)NC2CCCCC2)N(C(=O)c2ccc(-c3ccccc3)[nH]2)c2ccc(C3CCCCC3)cc2)o1 (centres undefined)	> 100	5.93	5.83		
COc1ccc(OC)c(-c2ccc(O)c(CNC3CCCCCC3)c2)c1	> 10	6.44	7.01		
COc1ccc(CNCc2cc(-c3ccnc4cc(Cl)ccc34)ccc2O)c(OC)c1	59.1	6.02	7.42		
Cc1ccc(O)c(C(=O)c2c[nH]c(-c3nc4ccccc4[nH]3)c2)c1	5.65	5.54	5.61		
CC1C/C(=C/c2ccncc2)C(=O)/C(=C/c2ccncc2)C1 (centres undefined)	> 10	5.92	6.00		
O=C(Cc1ccccc1)Nc1ccc(C(=O)Nc2ccc(-c3nc4ccc(NC(=O)c5ccc(NC(=O)Cc6ccccc6)cc5)c(Cl)c4[nH]3)cc2)cc1	40	5.10	5.22		
CCN(CC)CCCC(C)Nc1ccnc2ccc(-c3ccccc3)cc12 (centres undefined)	> 10	6.58	6.44		
O=C(Nc1c2ccccc2nc2ccccc12)c1cc(Cl)ccc1O	> 100	5.95	6.32		
COC(=O)c1c(-c2c(Cl)cccc2Cl)noc1/C=C/Nc1ccc(Cl)cc1	> 10	7.87	> 8.53		

SMILES	CC50 [1] [µM]	pEC50 ([2]; Plasmodium falciparum, 3D7)	pEC50 ([3]; Plasmodium falciparum, W2)	pEC50 [2]	pEC50 [3]
O=c1[nH]nc(SCc2c(F)cccc2[N+](=O)[O-])c(=O)[nH]1	> 10	< 5.90	< 6.16		
CCCCCN(C(=O)COCc1ccccc1)C(CC)c1nc2ccccc2c(=O)n1-c1cccc(Cl)c1 (centres undefined)	> 10	6.39	6.07		
O=C1C(=O)c2ncccc2-c2cccnc21 [PHANQUONE]	5.91	6.19	6.43		
O=C1NCCN1C(=O)C(c1ccccc1)c1ccccc1	> 10	< 5.81	< 6.13		
NC(=S)NN=C1c2ccccc2-c2nc3nonc3nc21	> 10	5.95	6.24		
CCCn1c(SCC(=O)N2c3ccccc3CC2C)nc2c1c(=O)n(C)c(=O)n2C (centres undefined)	> 10	< 5.90	> 7.57		
CCCCN(C(=O)Nc1c(C(C)C)cccc1C(C)C)C(CC)c1nc2ccccc2c(=O)n1-c1cccc(Cl)c1 (centres undefined)	> 6.29	< 5.90	> 7.67		
CCCCc1c(C)nc2ccc(Br)cc2c1O	> 100	5.71	6.27		
Cc1cccc(OC(C)C(=O)N2CCc3ccccc32)c1 (centres undefined)	> 100	5.46	5.94		
Cc1ccc(C(=O)NC2CCN(S(=O)(=O)c3c(C)cc(C)cc3C)CC2)cc1	> 100	5.84	6.33		
CCOC(=O)C1=C(C)NC2=C(C(=O)CC(c3ccc(OC)c(OC)c3)C2)C1c1ccc(Br)cc1 (centres undefined)	> 100	7.74	8.32		
O=C(Cn1c2ccccc2c(=O)c2cc(Cl)ccc21)Nc1cccc(C(F)(F)F)c1	> 10	< 5.87	5.78		
CCOC(=O)C1CCN(C(c2cc3cc(OC)c(OC)cc3[nH]c2=O)c2nnnn2Cc2ccccc2)CC1 (centres undefined)	> 100	6.38	6.80		
COc1ccc(CCNC(=S)Nc2ccccc2C)cc1OC	> 100	5.96	6.16		
COc1ccc2[nH]c3ccccc3c(=O)c2c1	> 100	5.36	5.50		
O=c1c2c3c(sc2[nH]c(=S)n1C1CCCCC1)CN(Cc1ccccc1)CC3	> 10	< 5.98	< 5.90		
CCCOc1ccc(C=Nc2ccc(S(=O)(=O)Nc3ccccn3)cc2)cc1	> 10	5.85	6.09		
Cc1cc(Nc2ccc(C(=O)n3ccnc3)cc2)n2ncnc2n1	> 10	< 5.90	< 6.46		
COc1cccc(NCC(O)Cn2c3ccc(Cl)cc3c3cc(Cl)ccc32)c1 (centres undefined)	51.3	5.67	5.92		
CCCCN(CCCC)C(=O)Cn1ccc(=N)c2ccccc21	> 100	5.43	> 9.82		
CC(C)CN(C(C)C(=O)NC(CN1CCCC1)c1ccccc1)S(=O)(=O)Cc1ccccc1 (centres undefined)	> 10	7.22	7.12		
COc1cc(NC(C)CCCN(Cc2ccccc2OC)C(=O)c2ccc(C)c([N+](=O)[O-])c2)c2ncccc2c1 (centres undefined)	4.64	6.06	6.26		
CC(C)(C)c1ccc(C(=O)C[n+]2cc(-c3ccccc3)n3c2CCC3)cc1	43	5.95	6.33		

SMILES	CC50 [1] [µM]	pEC50 ([2]; Plasmodium falciparum, 3D7)	pEC50 ([3]; Plasmodium falciparum, W2)	pEC50 [2]	pEC50 [3]
COC(=O)C1=C(C)N/C(=C\c2cc(C)n(-c3cc(Cl)ccc3Cl)c2C)C1=O	> 10	5.82	6.00		
OC1=C2C(=Nc3ccccc3SC2c2ccc(Br)cc2)c2ccccc21 (centres undefined)	> 48	6.47	7.24		
CCCCCCN(C(=O)c1ccc2ccccc2c1)C(CC)c1nc2ccccc2c(=O)n1-c1cccc(Cl)c1 (centres undefined)	> 10	< 5.90	< 5.95		
COc1ccc(/C=C2\SC(=N)N(c3ccc4c(c3)OCO4)C2=O)cc1OC	> 10	< 5.76	< 5.97		
COCCNC(=O)c1ccc(OC2CCN(CC(c3ccccc3)c3ccccc3)CC2)c(OC)c1	> 76.7	6.52	7.13		
O=C(Cn1c(=O)oc2cc(S(=O)(=O)NCc3ccccc3)ccc21)NC1CCCCC1	> 10	< 5.90	< 6.02		
Oc1ccc(Cl)cc1C1CC(c2ccc(Cl)cc2)=NC(c2ccc(Cl)cc2)N1 (centres undefined)	34.7	6.09	6.11		
NC12CC3CC(C1)CC(SSC14CC5CC(CC(N)(C5)C1)C4)(C3)C2	1.96	6.68	6.72		
CC1=CC(=O)OC[C@]23C[C@H](O)C(C)=C[C@H]2O[C@@H]2C[C@@H](OC(=O)C=CC=CC(=O)OCC1)[C@@]3(C)[C@]21CO1	0.0837			8.61	8.75
Cc1ccnc(NC(c2ccncc2)c2ccc3cccnc3c2O)c1 (centres undefined)	> 100	6.00	6.45		
Cc1cccc(C)c1NC(=O)N1CCN(C(=O)c2nc(-c3ccccc3)nc(C)c2C(=O)OC(C)C)CC1C (centres undefined)	> 10	6.10	6.19		
CN(CCCNc1ccnc2cc(Cl)ccc12)C(=O)C12CC3CC(CC(C3)C1)C2	14.1	7.28	6.74		
Nc1c(C(=O)Nc2ccc(Br)cc2)sc2nc3c(c(-c4cccs4)c12)CCC3	> 100	5.98	6.11		
Clc1ccc(-c2csc3ncnc(NCc4ccncc4)c23)cc1	> 100	5.54	6.13		
CCCCNC(=O)c1ccc2c(c1)N=C(c1cccc(OCC)c1)N(CCCN1CCCC1=O)C2	> 10	< 6.12	< 5.90		
Cc1cc2c(cc1C)NC(c1ccccc1F)C1=C(CC(C)(C)CC1=O)N2 (centres undefined)	> 100	5.78	5.75		
CCn1c2ccccc2[n+]2c(C)cc(C)nc12	> 100	6.57	6.70		
CC(NCCCN(C)C)c1cc(C(C)(C)C)cc2c1CCC2(C)C (centres undefined)	6.22	6.21	6.75		
O=C(NCc1ccco1)C1CCCN(c2cccc3c2C(=O)N(CCc2cccc(F)c2)C3=O)C1 (centres undefined)	> 10	< 5.85	< 6.21		
CC1CN(C(=O)C(Cc2c[nH]c3ccccc23)NC(=O)C(c2ccccc2)c2ccccc2)CCN1C(=O)NCc1ccccc1 (centres undefined)	> 10	< 5.90	< 6.41		
Cc1ccn2c(NC(C)(C)CC(C)(C)C)c(-c3ccccc3OC(=O)c3ccc(Br)cc3)nc2c1	75	6.13	6.83		
COc1cccc(CN2CCN(C(=O)c3c(C)noc3C)[C@@H](C)C2)c1	> 10	< 6.03	< 5.90		
